# Reference: patent US8097650B2, “Method of treating a condition associated with phosphorylation of TASK-1” (The Trustees of Columbia University In The City of New York, priority 2005, dated 2012)
# What was measured:
# [1] = system: TASK-1; experiment: C-PAF-sensitive TASK-1 current in mouse ventricular myocytes dialyzed with PKCε peptides; type: cell-based; details: modified Tyrode's (high K+), scrambled peptide in pipette
# Procedure: Mouse ventricular myocytes were isolated using a retrograde coronary perfusion method previously published (Kuznetsov V et al. (1995) Circ Res 76: 40-52). All the experiments were carried out according to the guidelines issued by the IACUC of Columbia University. Adult mice 2 or 3 months old, were anaesthetized with a xylazine and ketamine mix and heparinized, the heart was quickly removed and the ascending aorta was connected to the outlet of a Langendorff column and perfused with 20-25 ml of a buffer solution (37° C.) containing (mM):NaCl, 112; KCl, 5.4; NaHCO3, 4.2; MgCl2, 1.6; HEPES, 20; glucose, 5.4; NaH2PO4, 1.7; taurine, 10; L-glutamine, 4.1; MEM amino acids solution, 2%; MEM vitamin solution, 1%; adjusted to pH 7.4, and equilibrated with 100% O2. Next, the heart was perfused with an enzyme solution containing collagenase (0.2 mg/ml; Worthington Type II) and trypsin (0.04 mg/ml) at 35° C. for 10-12 min. After this perfusion, the atria were removed and the ventricles minced and transferred to a 50 ml flask with an enzyme solution containing collagenase (0.45 mg/ml), trypsin (0.08 mg/ml), Ca^2+ (0.75 mM) and bovine serum albumin (BSA; 4.8 mg/ml). The flask was shaken vigorously for 5-10 min at 32° C. before the supernatant was removed and the cells were collected by centrifugation, this operation was repeated two or three times and additional disaggregated cells were collected. After centrifugation, the myocytes were resuspended in the buffer solution containing Ca^2+ (0.75 mM) and BSA and stored at room temperature until use. Rod-shaped, Ca^2+-tolerant myocytes, obtained with this procedure, were used within 6 h of dissociation. Measurements were performed only on quiescent myocytes with clear striations
# The myocyte suspension or the coverslip with CHO cells was placed into a perfusion chamber, mounted on the stage of an inverted microscope. Unless otherwise indicated, CHO cells were superfused at room temperature with standard external Tyrode's buffer, containing (mM): NaCl, 140; KCl, 5.4; CaCl2, 1; MgCl2, 1; HEPES, 5; glucose, 10; adjusted to pH 7.4. Recordings were begun after the current reached a stable baseline (usually 3 to 4 min after initial cell rupture). In myocytes, TASK-1 current is small and exists in the presence of numerous larger K^+ currents. […] Membrane potential and current were measured in the whole cell configuration using borosilicate glass pipettes with a tip resistance between […] and filled with a pipette solution containing (mM): aspartic acid, 130; KOH, 146; NaCl, 10; CaCl2, 2; EGTA, 5; HEPES, 10; MGATP, 2; pH 7.2. […] Myocytes treated with the peptides were monitored continuously beginning immediately after rupture to detect the occurrence of any arrhythmias during dialysis of the peptide. […]
# [2] = system: murine TASK-1; experiment: TASK-1 current expressed in CHO cells (whole-cell ramp clamp); type: cell-based, mouse
# Outline: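 CHO cells transiently expressing murine TASK-1, with GFP or CD8 used to identify transfected cells, were studied 48 h after transfection. Whole-cell ramp-clamp recording at room temperature in Tyrode's pH 7.4 with a K-aspartate pipette solution. Records were corrected for a −9.8 mV junction potential and given as mean±SEM.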
smiles,measurement,setting,value
"CCCCCCCCCCCCCCCCOC[C@H](COP(=O)([O-])OCC[N+](C)(C)C)OC(=O)NC [C-PAF, carbamyl-platelet-activating factor]",reversal potential of C-PAF-sensitive current,[1],−26.1±1.9 mV
same,TASK-1 current density in the presence of drug,"[2]; +30 mV, C-PAF 185 nM or PMA 100 nM, no peptide",60.2±14.3 pA/pF
same,inhibition of TASK-1 current,"[2]; +30 mV, PMA 100 nM (n=17), C-PAF 185 nM (n=20)",12.1±1.0%
same,time for decrease in TASK-1 current to reach steady state,[2]; C-PAF 185 nM,≤ 2 min
same,decrease in the mean current density,"[2]; C-PAF 185 nM, +30 mV, n=9",12%
same,effect on expressed TASK-1 current,"[2]; C-PAF 185 nM, Example 1",reduced
same,TASK-1 current density after drug,"[2]; PKCε-inhibitor peptide 100 nM in pipette, C-PAF 185 nM or PMA 100 nM",25.4±12.4 pA/pF
same,"I-V relation after washout, deviation from control value",[2]; after washout of C-PAF 185 nM,≤ 5%
same,C-PAF inhibition of TASK-1 current,"[2]; modified Tyrode's, elevated K+",10.2±1.8%
same,C-PAF-induced inhibition of TASK-1,[2]; scrambled peptide in pipette,8.4±1.5%
